This note sets out measurements from patent publication US20040030131A1, “Pharmaceutical compounds” (priority 2000, published 2004).

What is called melting point is the temperature, or range, at which the solid turns liquid.

The structures appear in SMILES notation.

For `CN(C)CC1=C(c2ccc3sccc3c2)C2CCC(C1)C2.Cl` (stereo not shown), the melting point amounted to 57.8 °C.

`CNCC1=C(c2ccc3scc(C)c3c2)C2CCC(C1)C2.Cl` (stereo not shown) returned a melting point of 204.5 to 206.7 °C.

Take `Cc1cc2cc(C3=C(CN(C)C)C4CCC3C4)ccc2s1.Cl` (racemic): the melting point lay in the range of 179.5 to 181.6 °C.

Compound `CN(C)CC1=C(c2cc3cc(F)ccc3s2)C2CCC(C1)C2.Cl` (racemic) yielded a melting point of 207.4 to 211.1 °C. `COc1cccc2sc(C3=C(CN(C)C)C4CCC3C4)cc12.Cl` (racemic) had a melting point of 239 to 242 °C. Then `COc1cccc2cc(C3=C(CN(C)C)C4CCC3C4)sc12.Cl` (racemic), with 232 to 235 °C; and `CN(C)CC1=C(c2cccc3sccc23)C2CCC1C2` (racemic) [Example 15, (+/−)-((3-(Benzo[b]thiophen-4-yl)bicyclo[2.2.1]-hept-2-en-2-yl)methyl)dimethylamine], with 73.5 to 76.9 °C.
